Our source for the IC50 values is ChEMBL document CHEMBL4825742, “Novel Histone Deacetylase 6 Inhibitors for Treating Alzheimer's Disease and Cancer” (ACS Med Chem Lett, 2021).

For the assay, the target named is T1, Protein deacetylase HDAC6 (Homo sapiens, UniProt Q9UBN7).
T1 sequence (Q9UBN7 whole entry): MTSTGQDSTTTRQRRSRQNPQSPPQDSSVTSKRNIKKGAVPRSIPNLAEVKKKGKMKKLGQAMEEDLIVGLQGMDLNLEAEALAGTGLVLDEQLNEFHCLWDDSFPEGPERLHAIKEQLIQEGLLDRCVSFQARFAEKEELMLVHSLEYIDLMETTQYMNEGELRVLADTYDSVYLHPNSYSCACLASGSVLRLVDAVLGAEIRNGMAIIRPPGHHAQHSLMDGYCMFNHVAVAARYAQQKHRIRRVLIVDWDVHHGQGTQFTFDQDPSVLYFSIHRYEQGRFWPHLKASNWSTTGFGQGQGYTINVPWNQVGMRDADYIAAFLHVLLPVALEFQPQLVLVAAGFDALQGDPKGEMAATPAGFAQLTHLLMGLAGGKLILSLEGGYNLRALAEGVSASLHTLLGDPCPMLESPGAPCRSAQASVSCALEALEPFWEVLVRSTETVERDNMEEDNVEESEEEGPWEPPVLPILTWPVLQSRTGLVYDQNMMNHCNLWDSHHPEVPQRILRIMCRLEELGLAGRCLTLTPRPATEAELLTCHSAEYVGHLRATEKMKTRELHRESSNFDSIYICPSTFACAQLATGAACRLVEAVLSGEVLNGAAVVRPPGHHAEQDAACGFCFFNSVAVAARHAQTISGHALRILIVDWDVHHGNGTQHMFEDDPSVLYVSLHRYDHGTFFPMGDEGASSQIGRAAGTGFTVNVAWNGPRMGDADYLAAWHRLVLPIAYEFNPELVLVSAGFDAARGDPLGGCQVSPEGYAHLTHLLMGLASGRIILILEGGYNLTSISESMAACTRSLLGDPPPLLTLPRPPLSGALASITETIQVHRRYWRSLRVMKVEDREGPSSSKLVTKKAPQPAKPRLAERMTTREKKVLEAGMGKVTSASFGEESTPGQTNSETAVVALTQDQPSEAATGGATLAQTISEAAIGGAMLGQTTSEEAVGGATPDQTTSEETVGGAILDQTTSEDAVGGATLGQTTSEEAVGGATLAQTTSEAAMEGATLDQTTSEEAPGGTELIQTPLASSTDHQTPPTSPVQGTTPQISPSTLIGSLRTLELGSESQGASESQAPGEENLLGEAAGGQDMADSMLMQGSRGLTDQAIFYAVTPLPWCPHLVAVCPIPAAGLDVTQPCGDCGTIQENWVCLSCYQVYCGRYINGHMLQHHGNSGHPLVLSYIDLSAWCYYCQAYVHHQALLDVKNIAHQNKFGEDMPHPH
Kind of assay: Inhibition of human full length HDAC6 expressed in baculovirus expression system using FAM-RHKK(Ac)-NH2 as substrate incubated for 5 hrs by […] endpoint assay.
The term IC50 denotes the concentration that gives 50% inhibition. A higher IC50 goes with a need for much substance. `O=C(NO)c1ccc(CN2CC3(CCOC3)C2)c(F)c1` displayed an IC50 of 1 nM. `CN1Cc2cc(C(=O)NO)ccc2CN1Cc1ccccc1`: inhibition was half-maximal at 1 nM (IC50). Molecule `O=C(NO)c1cc(F)c2c(c1)CCN(C1CCC1)C2` came in with an IC50 of 1 nM.

In turn, `O=C(NO)c1cc(F)c2c(c1)CCn1cccc1-2` had an IC50 of 1 nM. The same measure for `CN1CC2(CCCCC2)CC[C@H]1Cc1cc(F)cc(C(=O)NO)c1`: 1 nM. In turn, `Cn1c2c(c3ccccc31)CCN(Cc1ccc(C(=O)NO)cc1F)C2` displayed a concentration for half-maximal inhibition (IC50) of 1 nM.
